{"source": "patent US12201111B2", "about": "“Glyphosate formulations containing amidoalkylamine surfactants” (Monsanto Technology LLC, priority 2016, dated 2025)", "origin": "cited, not measured here", "conditions": "glyphosate in its acid form; 25° C.", "data": [{"smiles": "O=C(O)CNCP(=O)(O)O", "note": "[glyphosate, N-phosphonomethylglycine]", "values": [{"measurement": "solubility in water", "value": 1.16, "unit": "% by weight"}]}]}
